From patent publication US8962843B2, “1,3,4-oxadiazole and 1,3,4-thiadiazole beta-lactamase inhibitors” (priority 2012, dated 2015) come the findings set out here.

Test [1] relates to bacterial strains that express the class D cephalosporinase OXA-15. The test is described as follows: Standard BLI potentiation MIC / synergy MIC assays, strains expressing OXA-15. Type of test: cell-based, E. coli. To be noted: in combination with a β-lactam; comparator Avibactam (CCC). The method, then: (§1) The experimental protocol was performed according to Clinical and Laboratory Standards Institute (CLSI) guidelines with modifications as described below (CLSI guidelines can be derived from the CLSI document M07-A9 published in January 2012: “Methods for Dilution Antimicrobial Susceptibility Tests for Bacteria That Grow Aerobically; Approved Standard-Ninth Edition”).
(§2) To prepare for MIC testing, frozen glycerol stocks of clinical isolates (Klebsiella pneumoniae, Eschericia coli, Enterobacter spp, Citrobacter spp, or Pseudomonas aeruginosa) were used to streak for isolated colonies on rich, non-selective, tryptic soy agar containing 5% sheep's blood (TSAB). Frozen glycerol stocks of laboratory engineered, isogenic E. coli strains, which contain cloned β-lactamase expressing plasmids were used to streak for isolated colonies on rich, selective LB agar supplemented with 25 μg/mL tetracycline to maintain the plasmid. All strains were incubated at 37° C. for 18-24 hrs.
(§3) On the day of testing, primary cultures were started by scraping off 5-10 colonies from the TSAB plates containing clinical strains or the tetracycline supplemented LB plates containing engineered strains. The clinical strain material was suspended in ˜5 mL of cation adjusted Mueller Hinton Broth (CAMHB) in 14 mL culture tubes. The engineered strain material was suspended in CAMHB (supplemented with 25 μg/mL tetracycline) in 14 mL culture tubes. All strains were incubated at 37° C. with aeration (200 rpm) for ˜2 hrs until the optical density at 600 nm (OD600) was >0.1.
(§4) The two compound components of the assay were each diluted in CAMHB and added to the 96-well broth microdilution assay plates. 50 μL of the β-lactam was added to each well of the assay plate in 2-fold dilutions with final concentrations ranging from 128 to 0.13 μg/mL. 25 μL of the BLI compound was added to all wells in the broth microdilution plates at a final concentration of 4 μg/mL. Inoculum cultures were prepared by standardizing the primary cultures to OD600=0.1 and then adding 20 μL of the adjusted primary culture per 1 mL CAMHB for clinical strains or CAMHB (supplemented with tetracycline at 100 μg/mL) for engineered strains, so that the final inoculum density was ˜10^5 colony forming units per milliliter. Diluted inoculum cultures were used to inoculate 25 μl, per well in 96-well broth microdilution assay plates. The final volume of each well was 100 μL and contained a β-lactam at different concentrations, a BLlcompound at 4 μg/mL concentration, the bacterial culture at an OD600 of approximately 0.001 and when necessary tetracycline at 25 μg/mL.
(§5) Plates were incubated for 18-20 hours at 37° C. with aeration (200 rpm). Following incubation, growth was confirmed visually placing plates over a viewing apparatus (stand with a mirror underneath) and then OD600 was measured using a SpectraMax 340PC384 plate reader (Molecular Devices, Sunnyvale, Calif.). Growth was defined as turbidity that could be detected with the naked eye or achieving minimum OD600 of 0.1. MIC values were defined as the lowest concentration producing no visible turbidity.
(§6) The synergy MIC (sMIC) assay determines the concentration of the BLI required to potentiate the activity of a fixed concentration of a β-lactam antibiotic against β-lactamase producing bacterial strains. The experimental protocol was performed according to Clinical and Laboratory Standards Institute (CLSI) guidelines with modifications as described below (CLSI guidelines can be derived from the CLSI document M07-A9 published in January 2012: “Methods for Dilution Antimicrobial Susceptibility Tests for Bacteria That Grow Aerobically; Approved Standard-Ninth Edition”). […]

The subject of test [2] is bacterial strains that express KPC β-lactamases. The test is described as follows: Standard BLI potentiation MIC / synergy MIC assays, strains expressing KPC β-lactamases. To be noted: in combination with a β-lactam; comparator Avibactam. Type of test: cell-based. The method, then:
as §1, §2, §3, §4, §5, §6

Counter-ions that a name gives are not always drawn.

As for `O=C1N2C[C@@H](CC[C@H]2c2nnco2)N1OS(=O)(=O)O` [Compound 701, (2S,5R)-2-(1,3,4-oxadiazol-2-yl)-7-oxo-1,6-diazabicyclo[3.2.1]octan-6-yl hydrogen sulfate], in test [1], the “activity against bacterial strains that express the class D cephalosporinase OXA-15, compared with Avibactam” value is “more active than Avibactam”. The “activity and/or spectrum of activity against bacterial strains that express KPC β-lactamases, compared with Avibactam” value in test [2] is given as “more active than Avibactam for at least one, bacterial strain that expresses KPC β-lactamase and/or show a better spectrum of activity”.
For the compound `NCc1nnc([C@@H]2CC[C@@H]3CN2C(=O)N3OS(=O)(=O)O)o1` [Compound 702, (2S,5R)-2-(5-(aminomethyl)-1,3,4-oxadiazol-2-yl)-7-oxo-1,6-diazabicyclo[3.2.1]octan-6-yl hydrogen sulfate], the “activity against bacterial strains that express the class D cephalosporinase OXA-15, compared with Avibactam” value in test [1] is on record as “more active than Avibactam”. Besides, the “activity and/or spectrum of activity against bacterial strains that express KPC β-lactamases, compared with Avibactam” value in test [2] is “more active than Avibactam for at least one, bacterial strain that expresses KPC β-lactamase and/or show a better spectrum of activity”.
Consider `NCCc1nnc([C@@H]2CC[C@@H]3CN2C(=O)N3OS(=O)(=O)O)o1` [Compound 703, (2S,5R)-2-(5-(2-aminoethyl)-1,3,4-oxadiazol-2-yl)-7-oxo-1,6-diazabicyclo[3.2.1]octan-6-yl hydrogen sulfate], for which the “activity against bacterial strains that express the class D cephalosporinase OXA-15, compared with Avibactam” value in test [1] was “more active than Avibactam”. In test [2], the “activity and/or spectrum of activity against bacterial strains that express KPC β-lactamases, compared with Avibactam” value is given as “more active than Avibactam for at least one, bacterial strain that expresses KPC β-lactamase and/or show a better spectrum of activity”.
As for `N=C(N)NCCc1nnc([C@@H]2CC[C@@H]3CN2C(=O)N3OS(=O)(=O)O)o1` [Compound 705, (2S,5R)-2-(5-(2-guanidinoethyl)-1,3,4-oxadiazol-2-yl)-7-oxo-1,6-diazabicyclo[3.2.1]octan-6-yl hydrogen sulfate], in test [1], the “activity against bacterial strains that express the class D cephalosporinase OXA-15, compared with Avibactam” value was “more active than Avibactam”. Besides, the “activity and/or spectrum of activity against bacterial strains that express KPC β-lactamases, compared with Avibactam” value in test [2] is reported as “more active than Avibactam for at least one, bacterial strain that expresses KPC β-lactamase and/or show a better spectrum of activity”.
With `NC(=O)c1nnc([C@@H]2CC[C@@H]3CN2C(=O)N3OS(=O)(=O)O)o1` [Compound 706, (2S,5R)-2-(5-carbamoyl-1,3,4-oxadiazol-2-yl)-7-oxo-1,6-diaza-bicyclo[3.2.1]octan-6-yl hydrogen sulfate], the “activity against bacterial strains that express the class D cephalosporinase OXA-15, compared with Avibactam” value in test [1] is given as “more active than Avibactam”. Further, the “activity and/or spectrum of activity against bacterial strains that express KPC β-lactamases, compared with Avibactam” value in test [2] is recorded as “more active than Avibactam for at least one, bacterial strain that expresses KPC β-lactamase and/or show a better spectrum of activity”.
Regarding `O=C1N2C[C@@H](CC[C@H]2c2nnc(C3CNC3)o2)N1OS(=O)(=O)O` [Compound 708, (2S,5R)-2-(5-(azetidin-3-yl)-1,3,4-oxadiazol-2-yl)-7-oxo-1,6-diazabicyclo[3.2.1]octan-6-yl hydrogen sulfate], the “activity against bacterial strains that express the class D cephalosporinase OXA-15, compared with Avibactam” value in test [1] was “more active than Avibactam”. Besides, in test [2], the “activity and/or spectrum of activity against bacterial strains that express KPC β-lactamases, compared with Avibactam” value is on record as “more active than Avibactam for at least one, bacterial strain that expresses KPC β-lactamase and/or show a better spectrum of activity”.
`N=C(N)N1CC(c2nnc([C@@H]3CC[C@@H]4CN3C(=O)N4OS(=O)(=O)O)o2)C1` [Compound 709, (2S,5R)-2-(5-(1-carbamimidoylazetidin-3-yl)-1,3,4-oxadiazol-2-yl)-7-oxo-1,6-diazabicyclo[3.2.1]octan-6-yl hydrogen sulfate]: the “activity against bacterial strains that express the class D cephalosporinase OXA-15, compared with Avibactam” value in test [1] is “more active than Avibactam”. In addition, the “activity and/or spectrum of activity against bacterial strains that express KPC β-lactamases, compared with Avibactam” value in test [2] is “more active than Avibactam for at least one, bacterial strain that expresses KPC β-lactamase and/or show a better spectrum of activity”.
With `O=C1N2C[C@@H](CC[C@H]2c2nnc(C3CCNC3)o2)N1OS(=O)(=O)O` (stereo partly drawn) [Compound 710, (2S,5R)-7-oxo-2-(5-(pyrrolidin-3-yl)-1,3,4-oxadiazol-2-yl)-1,6-diazabicyclo[3.2.1]octan-6-yl hydrogen sulfate], in test [1], the “activity against bacterial strains that express the class D cephalosporinase OXA-15, compared with Avibactam” value is “more active than Avibactam”. Also, the “activity and/or spectrum of activity against bacterial strains that express KPC β-lactamases, compared with Avibactam” value in test [2] was “more active than Avibactam for at least one, bacterial strain that expresses KPC β-lactamase and/or show a better spectrum of activity”.
For the compound `O=C1N2C[C@@H](CC[C@H]2c2nnc(C3CCNCC3)o2)N1OS(=O)(=O)O` [Compound 711, (2S,5R)-7-oxo-2-(5-(piperidin-4-yl)-1,3,4-oxadiazol-2-yl)-1,6-diazabicyclo[3.2.1]octan-6-yl hydrogen sulfate], the “activity against bacterial strains that express the class D cephalosporinase OXA-15, compared with Avibactam” value in test [1] is “more active than Avibactam”. Also, the “activity and/or spectrum of activity against bacterial strains that express KPC β-lactamases, compared with Avibactam” value in test [2] is reported as “more active than Avibactam for at least one, bacterial strain that expresses KPC β-lactamase and/or show a better spectrum of activity”.
Regarding `NCCCc1nnc([C@@H]2CC[C@@H]3CN2C(=O)N3OS(=O)(=O)O)o1` [Compound 720, (2S,5R)-2-(5-(3-aminopropyl)-1,3,4-oxadiazol-2-yl)-7-oxo-1,6-diazabicyclo[3.2.1]octan-6-yl hydrogen sulfate], the “activity against bacterial strains that express the class D cephalosporinase OXA-15, compared with Avibactam” value in test [1] was “more active than Avibactam”. The “activity and/or spectrum of activity against bacterial strains that express KPC β-lactamases, compared with Avibactam” value in test [2] is recorded as “more active than Avibactam for at least one, bacterial strain that expresses KPC β-lactamase and/or show a better spectrum of activity”.
Regarding `N=C(N)NCc1nnc([C@@H]2CC[C@@H]3CN2C(=O)N3OS(=O)(=O)O)s1` [Compound 721, (2S,5R)-2-(5-(guanidinomethyl)-1,3,4-thiadiazol-2-yl)-7-oxo-1,6-diazabicyclo[3.2.1]octan-6-yl hydrogen sulfate], the “activity against bacterial strains that express the class D cephalosporinase OXA-15, compared with Avibactam” value in test [1] was “more active than Avibactam”. Moreover, the “activity and/or spectrum of activity against bacterial strains that express KPC β-lactamases, compared with Avibactam” value in test [2] was “more active than Avibactam for at least one, bacterial strain that expresses KPC β-lactamase and/or show a better spectrum of activity”.
Regarding `CNCCc1nnc([C@@H]2CC[C@@H]3CN2C(=O)N3OS(=O)(=O)O)o1` [Compound 722, (2S,5R)-2-(5-(2-(methylamino)ethyl)-1,3,4-oxadiazol-2-yl)-7-oxo-1,6-diazabicyclo[3.2.1]octan-6-yl hydrogen sulfate], the “activity against bacterial strains that express the class D cephalosporinase OXA-15, compared with Avibactam” value in test [1] was “more active than Avibactam”. In addition, the “activity and/or spectrum of activity against bacterial strains that express KPC β-lactamases, compared with Avibactam” value in test [2] is “more active than Avibactam for at least one, bacterial strain that expresses KPC β-lactamase and/or show a better spectrum of activity”.
Turning to `NC1CCN(CCc2nnc([C@@H]3CC[C@@H]4CN3C(=O)N4OS(=O)(=O)O)o2)CC1` [Compound 775, (2S,5R)-2-(5-(2-(4-aminopiperidin-1-ybethyl)-1,3,4-oxadiazol-2-yl)-7-oxo-1,6-diazabicyclo[3.2.1]octan-6-yl hydrogen sulfate], the “activity and/or spectrum of activity against bacterial strains that express KPC β-lactamases, compared with Avibactam” value in test [2] was “more active than Avibactam for at least one, bacterial strain that expresses KPC β-lactamase and/or show a better spectrum of activity”.
